Structures can show the parent of a compound that is named as a salt.
Target: T1, elastase from human neutrophil (Homo sapiens, UniProt P08246)
T1 construct: elastase from human neutrophil; from tissue; host or cells: human neutrophil
T1 sequence (P08246 30-247 limits assumed): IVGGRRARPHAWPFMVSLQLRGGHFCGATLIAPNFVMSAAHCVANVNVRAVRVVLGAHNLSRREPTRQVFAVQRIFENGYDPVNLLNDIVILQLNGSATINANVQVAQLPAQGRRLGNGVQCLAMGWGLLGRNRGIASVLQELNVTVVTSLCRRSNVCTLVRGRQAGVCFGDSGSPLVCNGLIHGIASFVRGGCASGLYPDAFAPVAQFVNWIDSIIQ
Assay: Inhibitory effect on elastase (spectrophotometric, Suc-Ala-Pro-Ala-pNA substrate)
Format: biochemical
Settings: 1 mM Suc-Ala-Pro-Ala-pNA, tris-hydrochloric acid pH 8.0, 37° C. for 30 minutes, absorbance 405 nm
Protocol: The reaction mixture consisted of 1 mM Suc-Ala-Pro-Ala-pNA (dissolving in N-methylpyrrolidone to the concentration of 100 mM, and then adding 1/100 amount of the solution to the reaction mixture.), 0.1 M buffer solution of tris-hydrochloric acid (pH 8.0), 0.2 M sodium chloride aqueous solution, the sample solution of various concentrations and enzyme solution in a final volume of 1.0 ml was incubated at 37° C. for 30 minutes.
Inhibition percentage of the test compounds was calculated by the following equation: [formula]

SMILES	IC50 [nM]
CC(C)(C)C(=O)Oc1ccc(S(N)(=O)=O)cc1 [1(2), p-sulfamoylphenyl ester of pivalic acid]	770
CC(C)(C)C(=O)Oc1ccc(S(=O)(=O)NC2CCCCC2)cc1 [1(3), p-(N-cyclohexylsulfamoyl)phenyl ester of pivalic acid]	42
CC(C)(C)C(=O)Oc1ccc(S(=O)(=O)Nc2ccc(Cl)cc2)cc1 [1(8), p-[N-(4-chlorophenyl)sulfamoyl] phenyl ester of pivalic acid]	30
CC(C)(C)C(=O)Oc1ccc(S(=O)(=O)n2ccnc2)cc1 [1(12), p-[(1-imidazolyl)sulfonyl]phenyl ester of pivalic acid]	50
CC(C)(C)C(=O)Oc1ccc(S(=O)(=O)Nc2ccccn2)cc1 [1(14), p-[N-(α-pyridyl)sulfamoyl]phen-yl ester of pivalic acid]	190
CC(=O)Oc1ccc(N(S(=O)(=O)c2ccc(OC(=O)C(C)(C)C)cc2)S(=O)(=O)c2ccc(OC(=O)C(C)(C)C)cc2)cc1 [1(15)]	48
CC(C)(C)NS(=O)(=O)c1ccc(OC(=O)C(C)(C)C)cc1 [2(5), p-(N-tert-butylsulfamoyl)phenyl ester of pivalic acid]	53
CCN(CC)C(=O)COC(=O)c1ccccc1NS(=O)(=O)c1ccc(OC(=O)C(C)(C)C)c(C)c1 [2(38), 2-methyl-4-[N-(o-(N,N-diethyl-carbamoylmethoxycarbonyl)phehyl)sulfamoyl]phenyl ester of pivalic acid]	72
Cc1cc(S(=O)(=O)Nc2cccc3c2OC(C(=O)O)CO3)ccc1OC(=O)C(C)(C)C (stereo not shown) [2(49), 2-methyl-4-[N-(1,4-dioxa-2-carboxy-8-yl-naphthalene)sulfamoyl]phenyl ester of pivalic]	150

The next lines start with the values.

IC50 [nM]	SMILES
200	CSCCC(NC(=O)c1ccccc1NS(=O)(=O)c1ccc(OC(=O)C(C)(C)C)c(C)c1)C(=O)O (racemic) [2(68), N-[o-(3-methyl-4-pivaloyloxybenzene)sulfonylaminobenzoyl]-dl-methionine]
640	Cc1cc(S(=O)(=O)Nc2ccccc2OCCCC(=O)O)ccc1OC(=O)C(C)(C)C [2(51), 2-methyl-4-[N-(o-carboxypropoxy-phenyl)sulfamoyl]phenyl ester of pivalic acid]
690	Cc1cc(S(=O)(=O)Nc2ccccc2C(=O)N2CCC[C@H]2C(=O)O)ccc1OC(=O)C(C)(C)C [2(62), 2-methyl-4-[N-(2-prolylcarbonylphenyl)sulfamoyl] phenyl ester of pivalic acid]
410	Cc1cc(S(=O)(=O)Nc2ccccc2C(=O)N[C@@H](Cc2ccccc2)C(=O)O)ccc1OC(=O)C(C)(C)C [2(67), N-[o-(3-methyl-4-pivaloyloxybenzene)sulfonylaminobenzoyl]-L-phenylalanine]
520	Cc1cc(S(=O)(=O)Nc2ccccc2C(=O)N[C@@H](CCCCN)C(=O)O)ccc1OC(=O)C(C)(C)C [2(69), N-[o-(3-methyl-4-pivaloyloxybenzene)sulfonylaminobenzoyl]-L-lysine. hydrochloride]
21	CSc1ccc(NS(=O)(=O)c2ccc(OC(=O)C(C)(C)C)cc2)c(C(=O)NCC(=O)O)c1 [2(80), N-[5-methylthio-2-(p-pivaloyoxy-benzene)sulfonylaminobenzoyl] glycine]
24	CCCSc1ccc(NS(=O)(=O)c2ccc(OC(=O)C(C)(C)C)cc2)c(C(=O)NCC(=O)O)c1 [2(87), N-[2-(p-pivaloyloxybenzene)sulfonylamino-5-propylthiobenzoyl] glycine]
72	CC(C)(C)C(=O)Oc1ccc(S(=O)(=O)NCCc2ccccc2)cc1 [4(5), p-(N-phenethylsulfamoyl)phenyl ester of pivalic acid]
23	CC(C)(C)C(=O)Oc1ccc(S(=O)(=O)Nc2ccccc2C(=O)O)cc1 [5(3), p-[N-(o-carboxyphenyl)sulfamoyl] phenyl ester of pivalic acid]
31	CN(c1ccc(Br)cc1)S(=O)(=O)c1ccc(OC(=O)C(C)(C)C)cc1 [Example 1, p-[N-(p-bromophenyl)-N-methylsulfamoyl] phenyl ester of pivalic]

Source: patent publication US5403850A, “Derivatives of P-substituted phenyl ester of pivalic acid” (Ono Pharmaceutical Co., Ltd., priority 1988, dated 1995)
